The source of these data is ChEMBL document CHEMBL1201862, “PubChem BioAssay data set” (2004).

A word on the GI50: it is the concentration giving 50% growth inhibition.

Test systems include SK-MEL-28; NCI-H226; OVCAR-5; UACC-62; COLO 205; SW-620; SN12C; HT-29; A498; KM12; SF-295; MOLT-4; OVCAR-4; M19-MEL; HL-60; SNB-19; Malme-3M; HCT-15; CAKI-1; SNB-75.
What all share (assay): DTP human tumour cell line panel, 48 h

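Cultured in 96-well plates, cells were exposed to test compound for 48 hours across five concentrations. GI50 = concentration required for 50% inhibition of growth.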 Activity calls are given as the source filed them. Cut-off read from the data, not from the text of the source: active = GI50 up to about 1.1 µM and inactive = higher.

Regarding `COc1ccc(Cc2nn(C3OC(COC(C)=O)C(OC(C)=O)C(OC(C)=O)C3OC(C)=O)c(=S)n(-c3ccc(OC)cc3)c2=O)cc1` (stereo not given), the GI50 in the experiment on SK-MEL-28, in the experiment with NCI-H226, with OVCAR-5, in the experiment on UACC-62, with COLO 205 and with SW-620 was > 100 µM (inactive) each time. For the same compound, the GI50 in the experiment with SN12C, in the experiment with HT-29, in the experiment with A498, in the experiment with KM12, with SF-295 and in the experiment with MOLT-4 was > 100 µM (inactive) in each case. Also, the GI50 in the experiment on OVCAR-4 is > 100 µM (inactive); in the experiment on M19-MEL, > 100 µM (inactive); in the experiment on HL-60, > 77.8 µM (inactive); in the experiment on SNB-19 it was > 100 µM (inactive); with Malme-3M, > 100 µM (inactive); in the experiment with HCT-15 it was over 100 µM. Further, the figures for the GI50 in the experiment with CAKI-1 and in the experiment with SNB-75 were > 100 µM (inactive) and 43.5 µM (inactive), respectively.

For the compound `COC(=O)c1cccc(N[C@@H]2c3cc4c(cc3C(c3cc(OC)c(O)c(OC)c3)[C@H]3C(=O)OCC32)OCO4)c1` (stereo not given in full), the GI50 with SK-MEL-28 was 2.67 µM (inactive); in the experiment with NCI-H226, 0.662 µM (active); in the experiment with OVCAR-5, 6.67 µM (inactive); with UACC-62 it was 0.729 µM (active); with COLO 205 it was 1.33 µM (inactive); in the experiment on SW-620, 1.97 µM (inactive). The GI50 is 1.45 µM (inactive) in the experiment with SN12C; 1.69 µM (inactive) in the experiment with HT-29; 0.635 µM (active) in the experiment on A498; 2.37 µM (inactive) in the experiment with KM12; 0.543 µM (active) with SF-295; 0.0328 µM (active) in the experiment on MOLT-4. Moreover, the GI50 was 7.08 µM (inactive) with OVCAR-4; 1.28 µM (inactive) with M19-MEL; 0.149 µM (active) in the experiment on HL-60; 0.755 µM (active) in the experiment with SNB-19; 2.33 µM (inactive) in the experiment with Malme-3M; 1.08 µM in the experiment with HCT-15. Moreover, the values for the 50% growth inhibitory concentration (GI50) with CAKI-1 and in the experiment on SNB-75 were 0.321 µM (active) and 1.87 µM (inactive), respectively.

For `CC(C)[C@](O)(C(=O)OCC1=CCN2CC[C@@H](O)[C@@H]12)[C@H](C)O`, the GI50 with SK-MEL-28 is > 375 µM (inactive); in the experiment on NCI-H226 it was > 375 µM (inactive); in the experiment with OVCAR-5, > 278 µM (inactive); in the experiment on UACC-62, > 375 µM (inactive); in the experiment with COLO 205 it was > 375 µM (inactive); with SW-620, > 237 µM (inactive). In addition, the GI50 with SN12C, with HT-29, in the experiment on A498, in the experiment with KM12, in the experiment on SF-295 and with MOLT-4 was > 375 µM (inactive) throughout. The GI50 is > 375 µM (inactive) with OVCAR-4; > 255 µM (inactive) in the experiment on M19-MEL; > 375 µM (inactive) in the experiment with HL-60; > 375 µM (inactive) with SNB-19; > 375 µM (inactive) in the experiment with Malme-3M; over 375 µM in the experiment with HCT-15. Further, the GI50 in the experiment with CAKI-1 and in the experiment with SNB-75 was > 375 µM (inactive) each time.
